Our source for the EC50 values is patent US9278922B2 (ABBVIE INC., priority 2009, dated 2016).

pEC50: −log10 of the molar value. Some results are limits rather than exact numbers.

This assay deals with HCV 1b-Con-1 replicon. Description: HCV 1b-Con-1 replicon assay (luciferase reporter gene, HuH-7 cells). Particulars: Hepatitis C virus, Huh-7, luciferase reporter gene activity in the replicon, in the presence of 5% FBS. Type of assay: cell-based, Hepatitis C virus (HCV) genotype 1b-Con1. A general note: In antiviral work, replicon cells carry a viral genome segment that copies itself.
For `COC(=O)N[C@H](C(=O)N1CCC[C@H]1C(=O)Nc1ccc(CN(Cc2ccc(NC(=O)[C@@H]3CCCN3C(=O)[C@@H](NC(=O)OC)C(C)C)cc2)c2ccccc2)cc1)C(C)C` [Example 1], the pEC50 (in general, −log10 of the EC50, conventionally taken in molar units) is above 9.00.
In the case of `COC(=O)N[C@@H]1CCC[C@H]2CC[C@@H](C(=O)Nc3ccc(CN(Cc4ccc(NC(=O)[C@@H]5CC[C@@H]6CCC[C@@H](NC(=O)OC)C(=O)N65)cc4)c4ccccc4)cc3)N2C1=O` [Example 63, dimethyl [(phenylimino)bis{methanediylbenzene-4,1-diylcarbamoyl[(3S,6R,9aS)-5-oxooctahydro-1H-pyrrolo[1,2-a]azepine-3,6-diyl]}]biscarbamate] it was 7.00 to 8.00.
In the case of `CCN(CC)[C@@H](C(=O)N1CCC[C@H]1c1nc2cc(CN(Cc3ccc4[nH]c([C@@H]5CCCN5C(=O)[C@@H](c5ccccc5)N(CC)CC)nc4c3)c3ccccc3)ccc2[nH]1)c1ccccc1` [Example 65, N,N-bis[(2-{(2S)-1-[(2R)-2-(diethylamino)-2-phenylacetyl]pyrrolidin-2-yl}-1H-benzimidazol-5-yl)methyl]aniline] it was above 9.00.
In the case of `COC(=O)N[C@H](C(=O)N1CCC[C@H]1C(=O)Nc1ccc(CN(Cc2ccc(NC(=O)[C@@H]3CCCN3C(=O)[C@@H](NC(=O)OC)[C@@H](C)O)cc2)[C@@H]2CCOC2)cc1)[C@@H](C)O` [Example 97, dimethyl ([(3R)-tetrahydrofuran-3-ylimino]bis{methanediylbenzene-4,1-diylcarbamoyl(2S)pyrrolidine-2,1-diyl[(2S,3R)-3-hydroxy-1-oxobutane-1,2-diyl]})biscarbamate] it was 6.60 to 7.00; in that of `COC(=O)N[C@H](C(=O)N1CCC[C@H]1C(=O)Nc1ccc(CN(Cc2ccc(NC(=O)[C@@H]3CCCN3C(=O)[C@@H](NC(=O)OC)C(C)(C)O)cc2)c2ccccc2)cc1)C(C)(C)O` [Example 28, dimethyl [(phenylimino)bis{methanediylbenzene-4,1-diylcarbamoyl(2S)pyrrolidine-2,1-diyl[(2S)-3-hydroxy-3-methyl-1-oxobutane-1,2-diyl]}]biscarbamate], above 9.00.
For `CC(C)(C)[C@@H](C(=O)N1CCC[C@H]1C(=O)Nc1ccc(CN(Cc2ccc(NC(=O)[C@@H]3CCCN3C(=O)[C@@H](N3CCNC3=O)C(C)(C)C)cc2)c2ccccc2)cc1)N1CCNC1=O` [Example 31, (2S,2′S)-N,N′-[(phenylimino)bis(methanediylbenzene-4,1-diyl)]bis{1-[(2S)-3,3-dimethyl-2-(2-oxoimidazolidin-1-yl)butanoyl]pyrrolidine-2-carboxamide}], the pEC50 is above 9.00.
As to `CC[C@@H](C)[C@H](NC(=O)OC)C(=O)N1CCC[C@H]1C(=O)Nc1ccc(CN(Cc2ccc(NC(=O)[C@@H]3CCCN3C(=O)[C@@H](NC(=O)OC)[C@H](C)CC)cc2)c2ccccc2)cc1` [Example 50, dimethyl[(phenylimino)bis{methanediylbenzene-4,1-diylcarbamoyl(2S)pyrrolidine-2,1-diyl[(2S,3R)-3-methyl-1-oxopentane-1,2-diyl]}]biscarbamate], the pEC50 is above 9.00.
Consider `COC(=O)N[C@H](C(=O)N1CC(F)(F)C[C@H]1C(=O)Nc1ccc(CN(Cc2ccc(NC(=O)[C@@H]3CC(F)(F)CN3C(=O)[C@@H](NC(=O)OC)C(C)(C)C)cc2)c2ccccc2)cc1)C(C)(C)C` [Example 73], for which the pEC50 is above 9.00.
The figure for `CC[C@H](C)[C@H](NC(=O)OC)C(=O)N1CCC[C@H]1C(=O)Nc1ccc(CN(Cc2ccc(NC(=O)[C@@H]3CCCN3C(=O)[C@@H](NC(=O)OC)[C@@H](C)CC)cc2)c2ccccc2)cc1` [Example 9] is above 9.00; for `COC(=O)N[C@H](C(=O)N1CCC[C@H]1/C=C/c1ccc(CN(Cc2ccc(NC(=O)[C@@H]3CCCN3C(=O)[C@@H](NC(=O)OC)C(C)(C)C)cc2)c2ccccc2)cc1)C(C)(C)C` [Example 149, N-(methoxycarbonyl)-3-methyl-L-valyl-N-(4-{[{4-[(E)-2-{(2S)-1-[N-(methoxycarbonyl)-3-methyl-L-valyl]pyrrolidin-2-yl}ethenyl]benzyl}(phenyl)amino]methyl}phenyl)-L-prolinamide] it is 7.00 to 8.00.
